The results in this text go back to BindingDB's records for patent US20250270222 (Satellos Bioscience, 2025).

Experiment [1] deals with T1, BMP-2-inducible protein kinase [38-345,K320A,K321A] (Human, UniProt Q9NSY1, K320A/K321A).
T1 construct: 38-345
Nature of the experiment: BIKE pSENs Assay. The protocol:
BIKE protein was dissolved at 20 nM in 1× enzyme solution (50 mM HEPES pH7.5, 10 mM MgCl2, 1 mM DTT, 1% glycerol, 0.5 mM EGTA, 0.01% Briji35, 0.02% BSA) and 12.5 ul was incubated with 250 nl DMSO or 250 nl compound in DMSO at 25° C. for 15 min. The reaction was started by addition of 12.5 ul of 30 uM AQT0759 (Assayquant, CSKS-AQT0759B) and 40 uM ATP which were diluted in 1× substrate dilution buffer (50 mM HEPES pH7.5, 10 mM MgCl2. 1 mM DTT, 1% glycerol, 0.5 mM EGTA, 0.01% Briji35).

Experiment [2] has as its target T2, Cyclin-G-associated kinase [25-335] (Human, UniProt O14976).
T2 construct: 25-335
T2 sequence (O14976 whole entry): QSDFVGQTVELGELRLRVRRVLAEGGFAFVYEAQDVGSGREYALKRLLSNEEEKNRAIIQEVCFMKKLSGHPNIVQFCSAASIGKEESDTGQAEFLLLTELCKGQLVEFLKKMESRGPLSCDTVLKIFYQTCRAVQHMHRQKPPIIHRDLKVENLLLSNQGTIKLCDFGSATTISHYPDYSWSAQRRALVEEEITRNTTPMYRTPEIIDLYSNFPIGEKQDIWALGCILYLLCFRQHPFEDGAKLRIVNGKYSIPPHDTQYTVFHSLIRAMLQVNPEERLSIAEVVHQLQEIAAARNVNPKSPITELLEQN
Nature of the experiment: GAK pSENs Assay. From the text:
This example describes one illustrative method for determining the IC50 of the compounds of the present invention against GAK (amino acids Q25-N335).

Where only a bound is given, the exact number is not on record here.

T1 sequence (Q9NSY1 38-345 K320A/K321A): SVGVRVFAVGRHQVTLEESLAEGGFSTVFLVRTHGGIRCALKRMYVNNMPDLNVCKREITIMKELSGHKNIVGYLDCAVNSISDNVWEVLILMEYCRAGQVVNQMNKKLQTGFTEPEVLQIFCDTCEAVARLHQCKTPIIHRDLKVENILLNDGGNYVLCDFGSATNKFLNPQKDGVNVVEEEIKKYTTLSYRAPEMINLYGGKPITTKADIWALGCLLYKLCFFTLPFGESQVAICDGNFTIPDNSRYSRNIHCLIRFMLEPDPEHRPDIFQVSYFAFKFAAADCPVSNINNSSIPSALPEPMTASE

A word on the IC50: it is the concentration at which inhibition is half-maximal. Lower therefore signals greater potency. `CN(CCN1C[C@@H](OC(=O)N2CCN(c3ccn4ncc(-c5cccnc5OC5CC5)c4n3)CC2)CC1=O)C(=O)OC(C)(C)C` [US20250270222, Compound I-35]: the IC50 in experiment [1] and in experiment [2] was above 1500 nM each time.
